Measured values as given in patent US11458189B2, “Cytoprotective drugs” (BALMES TRANSPLANTATION, priority 2017, dated 2022).
Starred links: 1 amine or outer side, 2 acyl side, 3 side chain; linkers in the order of their positions; H or OH if unused. Positions of bridges follow the written chain, without caps; N, C: chain ends. Non-standard residues stand in square brackets, D forms with d. Residues, ends and D or L forms follow the SMILES beside them. ξ: configuration not given here. *: point of attachment. pTerphenylCO(4''-OnC5H11) = CCCCCOc1ccc(-c2ccc(-c3ccc(C(=O)*)cc3)cc2)cc1; Orn(4R-OH,5R-OH) = O=C([C@H](C[C@@H](O)[C@@H](O)N[*:3])N[*:1])[*:2]; hTyr(3S-OH,4S-OH) = N[C@H](C(=O)O)[C@H](O)[C@@H](O)c1ccc(O)cc1; Pro(3S-OH,4S-Me) = C[C@H]1CN[C@H](C(=O)O)[C@H]1O; ξPro(4R-OH) = O=C(O)C1C[C@@H](O)CN1

System: Rat Primary Kidney Glomerular Endothelial cells
Experiment: Oxygen and glucose deprivation followed by replenishment, cell survival (calcein AM), rat glomerular endothelial cells;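 for Survival rate (%): 100% is hypoxia control with glucose and 0% is untreated OGD control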
Assay type: cell-based
Method: Anidulafungin and micafungin were tested on Human Renal Glomerular Endothelial Cells (HRGEC, Innoprot P10665), on Human Renal Proximal Tubular Epithelial Cells (HRPTEpiC, Innoprot P10662), on Human Astrocytes (HA, caltag SC-1800), on Human Cardiac Microvascular Endothelial Cells (HCMEC, Caltag SC-6000), on Human Hepatic Sinusoidal Endothelial Cells (HHSEC, Caltag SC-5000), on Rat Primary Kidney Glomerular Endothelial cells (Cellbiologics, RN-6014G) and on Bovine Brain Microvascular Endothelial Cells (BBMEC, Caltag SC-B100).
In a first phase, these isolated, purified and cryopreserved cells are thawed and multiplied according to the supplier's recommendations in T75 or T175 flasks pre-coated with 2 μg of fibronectin/[…] (CORNING) for HRGEC, HCMEC, HHSEC and BBMEC, or 2 μg poly-L-lysin/cm^2 (Caltag SC-0403) for HRPTEpiC and HA, or 15 mL/flask 175 cm^2 gelatin-based solution (Cellbiologics) in the presence of endothelial cell supplemented growth medium ECM (P60104, INNOPROT, Caltag, SC-1001) for HRGEC, HCMEC, HHSEC, RPKGEC or BBMEC, or astrocyte cell supplemented growth medium AM (Caltag SC-1801) for HA or epithelial cell supplemented growth medium EpiCM (P60106, INNOPROT) for HRPTEpiC, at 37° C. under 5% CO2 and saturated humidity until their confluency. They are then harvested by trypsinization according to the method described by the supplier for exactly 5 minutes and then reseeded in new flasks a maximum of three times.
To carry out the oxygen and glucose deprivation test followed by their replenishment, the cells will be seeded in 96-well black plates with transparent flat bottom (GREINER). Once a sufficient number of cells has been obtained to allow seeding of 2000 to 15000 cells per well of 96-well plates depending on the cell type, the cells are seeded in these 96-well plates previously coated with an extracellular matrix as listed above for the flasks. The cells are cultured for 5 to 8 days according to the cell type, in the presence of the same growth medium as in the flask as described above except for HRGEC and HRPTEpiC for which DMEM (DUTSCHER) with 1 g/L of supplemented glucose is used, at 37° C. under 5% CO2 and saturated humidity to obtain confluency.
On the first day of oxygen and glucose deprivation, (5th, 6th, 7th or 8th day of culture), the culture conditions are drastically changed. The medium of all plates is removed and replaced by DMEM (DUTSCHER) medium without glucose and supplemented only with 1% penicillin-streptomycin (DUTSCHER). Anidulafungin or micafungin dissolved in dimethyl sulfoxide (DMSO) is then added to each well at the desired concentration, resulting in a maximum of 1% DMSO, and the plates are placed under hypoxia at <1% 02 and 5% CO2 at 37° C. for 24 hours of culture. Each compound was tested in a concentration range.
After 24 hours, the growth medium is changed and replaced by a richer medium, DMEM (DUTSCHER) at 1 g/L glucose and 2% FBS (INNOPROT) and 1% penicillin-streptomycin (DUTSCHER). These media will have been pre-equilibrated at 37° C. in advance. The cells are then returned to culture at 37° C. under 20% 02 and 5% CO2 for 22h.
After 22 hours of reoxygenation, the potential protective effect of anidulafungin or micafungin is measured by a cell viability test using calcein AM (CORNING), which is a dye substrate. The calcein AM can easily cross the cell membrane of the viable cells. The AM ester groups mask the part of the molecule that chelates calcium. Once inside the cells, the (non-fluorescent) calcein AM is hydrolyzed to (fluorescent) calcein by endogenous esterases. The resulting calcein molecule binds to calcium inside the cell and remains trapped inside the cell. These molecules emit strong green fluorescence when subjected to […] of a particular wavelength (495 nm). Since dead cells lack esterase activity, only living cells are labelled.
This cell viability test is performed in two steps. […]

[1] = [Anidulafungin] log μM 0.1760913
[2] = [Anidulafungin] log μM 0.4771213
[3] = [Anidulafungin] log μM 0.7781513
[4] = [Anidulafungin] log μM 0.845098
[5] = [Anidulafungin] log μM 0.9542425
[6] = [Anidulafungin] log μM −0.154902
[7] = [Anidulafungin] log μM −0.30103
[8] = [Anidulafungin] log μM −0.5228788

## CCCCCOc1ccc(-c2ccc(-c3ccc(C(=O)N[C@H]4C[C@@H](O)[C@@H](O)NC(=O)[C@@H]5[C@@H](O)[C@@H](C)CN5C(=O)[C@H]([C@@H](C)O)NC(=O)[C@H]([C@H](O)[C@@H](O)c5ccc(O)cc5)NC(=O)C5C[C@@H](O)CN5C(=O)[C@H]([C@@H](C)O)NC4=O)cc3)cc2)cc1 (stereo partly drawn) [Anidulafungin] ({pTerphenylCO(4''-OnC5H11)}-[Orn(4R-OH,5R-OH)]T[ξPro(4R-OH)][hTyr(3S-OH,4S-OH)]T[Pro(3S-OH,4S-Me)]; lactam 1-C)
[Anidulafungin] log μM 0
  Globalfluo assay 1: 2763556 arbitrary units
  Globalfluo assay 2: 3715544 arbitrary units
  Globalfluo assay 3: 3395182 arbitrary units
  Mean globalfluo: 3291427 arbitrary units
  Survival rate (%): −1%
[1]
  Globalfluo assay 1: 4125220 arbitrary units
  Globalfluo assay 2: 3558016 arbitrary units
  Globalfluo assay 3: 4929089 arbitrary units
  Mean globalfluo: 4204108 arbitrary units
  Survival rate (%): 3%
[Anidulafungin] log μM 0.30103
  Globalfluo assay 1: 6944934 arbitrary units
  Globalfluo assay 2: 4307906 arbitrary units
  Globalfluo assay 3: 5211398 arbitrary units
  Mean globalfluo: 5488079 arbitrary units
  Survival rate (%): 8%
[Anidulafungin] log μM 0.39794
  Globalfluo assay 1: 7911533 arbitrary units
  Globalfluo assay 2: 3661322 arbitrary units
  Globalfluo assay 3: 9914104 arbitrary units
  Mean globalfluo: 7162320 arbitrary units
  Survival rate (%): 15%
[2]
  Globalfluo assay 1: 5124858 arbitrary units
  Globalfluo assay 2: 4212586 arbitrary units
  Globalfluo assay 3: 3823154 arbitrary units
  Mean globalfluo: 4386866 arbitrary units
  Survival rate (%): 4%
[Anidulafungin] log μM 0.60206
  Globalfluo assay 1: 7387656 arbitrary units
  Globalfluo assay 2: 4239781 arbitrary units
  Globalfluo assay 3: 4439823 arbitrary units
  Mean globalfluo: 5355753 arbitrary units
  Survival rate (%): 7%
[Anidulafungin] log μM 0.69897
  Globalfluo assay 1: 10033620 arbitrary units
  Globalfluo assay 2: 4718363 arbitrary units
  Globalfluo assay 3: 7321110 arbitrary units
  Mean globalfluo: 7357698 arbitrary units
  Survival rate (%): 16%
[3]
  Globalfluo assay 1: 10219130 arbitrary units
  Globalfluo assay 2: 11308900 arbitrary units
  Globalfluo assay 3: 8342703 arbitrary units
  Mean globalfluo: 9956911 arbitrary units
  Survival rate (%): 26%
[4]
  Globalfluo assay 1: 10949560 arbitrary units
  Globalfluo assay 2: 9736722 arbitrary units
  Globalfluo assay 3: 8273113 arbitrary units
  Mean globalfluo: 9653132 arbitrary units
  Survival rate (%): 25%
[Anidulafungin] log μM 0.90309
  Globalfluo assay 1: 15350400 arbitrary units
  Globalfluo assay 2: 11785650 arbitrary units
  Globalfluo assay 3: 7401575 arbitrary units
  Mean globalfluo: 11512542 arbitrary units
  Survival rate (%): 32%
[5]
  Globalfluo assay 1: 9960942 arbitrary units
  Globalfluo assay 2: 10967130 arbitrary units
  Globalfluo assay 3: 15364830 arbitrary units
  Mean globalfluo: 12097634 arbitrary units
  Survival rate (%): 35%
[6]
  Globalfluo assay 1: 3628425 arbitrary units
  Globalfluo assay 2: 3463582 arbitrary units
  Globalfluo assay 3: 3208621 arbitrary units
  Mean globalfluo: 3433543 arbitrary units
  Survival rate (%): 0%
[7]
  Globalfluo assay 1: 2638281 arbitrary units
  Globalfluo assay 2: 3646882 arbitrary units
  Globalfluo assay 3: 3842217 arbitrary units
  Mean globalfluo: 3375793 arbitrary units
  Survival rate (%): −1%
[8]
  Globalfluo assay 1: 3892260 arbitrary units
  Globalfluo assay 2: 3780606 arbitrary units
  Globalfluo assay 3: 4016223 arbitrary units
  Mean globalfluo: 3896363 arbitrary units
  Survival rate (%): 2%
[Anidulafungin] log μM −1
  Globalfluo assay 1: 3282790 arbitrary units
  Globalfluo assay 2: 3299018 arbitrary units
  Globalfluo assay 3: 4299152 arbitrary units
  Mean globalfluo: 3626987 arbitrary units
  Survival rate (%): 0%
[Anidulafungin] log μM −2
  Globalfluo assay 1: 5018485 arbitrary units
  Globalfluo assay 2: 4417533 arbitrary units
  Globalfluo assay 3: 3450400 arbitrary units
  Mean globalfluo: 4295473 arbitrary units
  Survival rate (%): 3%
[Anidulafungin] log μM −3
  Globalfluo assay 1: 2824954 arbitrary units
  Globalfluo assay 2: 3274736 arbitrary units
  Globalfluo assay 3: 3773899 arbitrary units
  Mean globalfluo: 3291196 arbitrary units
  Survival rate (%): −1%
